Results taken from patent publication US4371532A, “Malonamidooxadethiacephem compounds” (Shionogi & Co., Ltd., priority 1980, dated 1983).

Columns and labels:
Escherichia coli EC-14 = experiment: Minimal inhibitory concentration in vitro by serial dilution method on Mueller Hinton agar; assay type: cell-based; conditions: disodium salts (10), E. coli EC-14, Mueller Hinton agar
P. aeruginosa CN-5 = experiment: Protection of mice from infection caused by Pseudomonas aeruginosa CN-5; assay type: in vivo; conditions: CN5, ip, inoculation = 7 × 10^3, two subc. inj. (mg/kg each) 1 and 5 hrs after intraperitoneal inoculation
Experimental: Five representative compounds in the preceding examples are assayed for protection of mice from infection caused by Pseudomonas aeruginosa to give the effects as in the following table. | two subc. inj. (given mg/kg each) 1 and 5 | hrs after intraperitoneal inoculation | *inoculation = 7 × 10^3 -

P. aeruginosa PS-24 = experiment: Protection of mice from infection caused by Pseudomonas aeruginosa PS-24; assay type: in vivo; conditions: PS24, ip, inoculation = 1 × 10^4, two subc. inj. (mg/kg each) 1 and 5 hrs after intraperitoneal inoculation
Experimental: Five representative compounds in the preceding examples are assayed for protection of mice from infection caused by Pseudomonas aeruginosa to give the effects as in the following table. | two subc. inj. (given mg/kg each) 1 and 5 | hrs after intraperitoneal inoculation | **inoculation = 1 × 10^4

In the case of `COC1(NC(=O)C(C)C(=O)O)C(=O)N2C(C(=O)O)=C(CSc3nncs3)COC21` (centres unmarked) [Het=Tdz No. 1], the MIC (Escherichia coli EC-14; EC14, Het=Tdz) is reported as 0.39 µg/mL.
For `CCC(C(=O)O)C(=O)NC1(OC)C(=O)N2C(C(=O)O)=C(CSc3nncs3)COC21` (centres unmarked) [Het=Tdz No. 2], the MIC (Escherichia coli EC-14; EC14, Het=Tdz) was 0.2 µg/mL.
`CCCC(C(=O)O)C(=O)NC1(OC)C(=O)N2C(C(=O)O)=C(CSc3nncs3)COC21` (centres unmarked) [Het=Tdz No. 3] was tested, and the MIC (Escherichia coli EC-14; EC14, Het=Tdz) was 0.2 µg/mL.
`CCCCC(C(=O)O)C(=O)NC1(OC)C(=O)N2C(C(=O)O)=C(CSc3nncs3)COC21` (centres unmarked) [Het=Tdz No. 4] showed an MIC (Escherichia coli EC-14; EC14, Het=Tdz) of 0.39 µg/mL.
`C=CCC(C(=O)O)C(=O)NC1(OC)C(=O)N2C(C(=O)O)=C(CSc3nncs3)COC21` (centres unmarked) [Het=Tdz No. 5] was tested, and the MIC (Escherichia coli EC-14; EC14, Het=Tdz) was 0.39 µg/mL.
For `COC1(NC(=O)CC(=O)O)C(=O)N2C(C(=O)O)=C(CSc3nnnn3C)COC21` (centres unmarked) [Het=Tetr No. 1], the MIC (Escherichia coli EC-14; EC14, Het=Tetr) was 1.56 µg/mL.
`COC1(NC(=O)C(C)C(=O)O)C(=O)N2C(C(=O)O)=C(CSc3nnnn3C)COC21` (centres unmarked) [Het=Tetr No. 2] was tested, and the MIC (Escherichia coli EC-14; EC14, Het=Tetr) was 0.2 µg/mL.
For `CCC(C(=O)O)C(=O)NC1(OC)C(=O)N2C(C(=O)O)=C(CSc3nnnn3C)COC21` (centres unmarked) [Het=Tetr No. 3], the MIC (Escherichia coli EC-14; EC14, Het=Tetr) was 0.1 µg/mL.
Work on `COC1(NC(=O)C(C(=O)O)C(C)C)C(=O)N2C(C(=O)O)=C(CSc3nnnn3C)COC21` (centres unmarked) [Het=Tetr No. 5] yielded an MIC (Escherichia coli EC-14; EC14, Het=Tetr) of 0.39 µg/mL.
Compound `COC1(NC(=O)C(CC(C)C)C(=O)O)C(=O)N2C(C(=O)O)=C(CSc3nnnn3C)COC21` (centres unmarked) [Het=Tetr No. 6] has an MIC (Escherichia coli EC-14; EC14, Het=Tetr) of 0.39 µg/mL.
Work on `CCCCCCC(C(=O)O)C(=O)NC1(OC)C(=O)N2C(C(=O)O)=C(CSc3nnnn3C)COC21` (centres unmarked) [Het=Tetr No. 7] yielded an MIC (Escherichia coli EC-14; EC14, Het=Tetr) of 12.5 µg/mL.
For `C=CCC(C(=O)O)C(=O)NC1(OC)C(=O)N2C(C(=O)O)=C(CSc3nnnn3C)COC21` (centres unmarked) [Het=Tetr No. 8], the MIC (Escherichia coli EC-14; EC14, Het=Tetr) was 0.2 µg/mL.
For `CCCC(C(=O)O)C(=O)NC1(OC)C(=O)N2C(C(=O)O)=C(CSc3nnnn3C)COC21` (centres unmarked) [Het=Tetr R=n-C3 H7], the MIC (Escherichia coli EC-14; EC14, Het=Tetr) was 0.1 µg/mL.
Work on `COC1(NC(=O)C(C(=O)O)c2ccc(O)cc2)C(=O)N2C(C(=O)O)=C(CSc3nnnn3C)COC21` (centres unmarked) [Reference, reference compound] yielded an ED50 (P. aeruginosa CN-5) of 44.5 mg/kg and an ED50 (P. aeruginosa PS-24) of 20.4 mg/kg.
In the case of `COC1(NC(=O)C(C)C(=O)O)C(=O)N2C(C(=O)O)=C(CSc3nnnn3C)COC21` (centres unmarked) [compound 1], the ED50 (P. aeruginosa CN-5) is reported as 22.3 mg/kg and the ED50 (P. aeruginosa PS-24) is reported as 11.1 mg/kg.
In the case of `CCC(C(=O)O)C(=O)NC1(OC)C(=O)N2C(C(=O)O)=C(CSc3nnnn3C)COC21` (centres unmarked) [compound 2], the ED50 (P. aeruginosa CN-5) is reported as 22.2 mg/kg and the ED50 (P. aeruginosa PS-24) is reported as 17.7 mg/kg.
`COC1(NC(=O)C(C)C(=O)O)C(=O)N2C(C(=O)O)=C(CSc3nncs3)COC21` (centres unmarked) [compound 3] gave an ED50 (P. aeruginosa CN-5) of 33.8 mg/kg and an ED50 (P. aeruginosa PS-24) of 12.6 mg/kg.
For `CCC(C(=O)O)C(=O)NC1(OC)C(=O)N2C(C(=O)O)=C(CSc3nncs3)COC21` (centres unmarked) [compound 4], the ED50 (P. aeruginosa CN-5) was 32.5 mg/kg and the ED50 (P. aeruginosa PS-24) was 15.5 mg/kg.
